Laboratory results reported in patent publication US20180140545A1, “ANTIMICROBIAL PEPTIDE STIMULATING SANITIZING COMPOSITION” (GOJO Industries, Inc., priority 2016, published 2018).

Experiments:
Type in all cases: cell-based
[1] = tested on: HBD-3; experiment: HBD-3 ELISA, dose response in Neonatal Human Epidermal Keratinocytes; settings: for HBD-3: NHEK, overnight (16 hours); for increase in HBD-3 production and/or activity: vs control culture medium
Procedure: (§1) To determine the optimal dose of active ingredient, test dose response studies were run using both Decorinyl® and Pamitoyl Pentapeptided-3. These test dose response studies were commissioned to determine the concentration of HBD-3 at various levels of the active ingredients. Neonatal Human Epidermal Keratinocytes (NHEK; Life Technology, Grand Island, N.Y., USA) were cultured with keratinocyte growth medium (KGM, Medium 154: M-154-500 Life Technology with supplements S-001, Life Technologies). NHEK were seeded into 96-well plates at a density of 10000 cells in 200 μl medium per well. After 48 hours, the cells were incubated with varying concentrations of each ingredient solution in a culture medium (KGM) overnight (16 hours) at 37° C., 5% CO2 and 95% humidity at four replicates for each concentration. Each of these active ingredients was tested at the following weight percents based on the weight of the total culture: 0.02 wt. %, 0.05 wt. %, 0.1 wt. %, 0.2 wt. %, 0.5 wt. %, 1.0 wt. %, 2.0 wt. %. Each of these compositions was compared to a control culture medium.
(§2) HBD-3 was detected using HBD-3 ELISA developing kits (commercially available from Peprotech). ELISA were performed according to the manufactory instructions of each kit by adding 100 μl/well of culture medium after overnight treatment. The substrate of ELISA reaction was using the substrate reagent from R&D Systems (DY999), and the reactions were stopped by adding 50 μl of 1N H2SO4 in each well. The results were measured using a colorimeter, absorbance was measured at 450 nanometers (nm) within 30 minutes. Wavelength correction was set to 570 nm. The concentration of each sample was calculated using ELISA standard curve.

[2] = tested on: HBD-1; experiment: HBD-1 ELISA, dose response in Neonatal Human Epidermal Keratinocytes; settings: for HBD-1: NHEK, overnight (16 hours); for increase in HBD-1 production and/or activity: vs control culture medium
Procedure: as §1, with “HBD-1” for “HBD-3”
as §2, with “HBD-1 was detected” for “HBD-3 was detected”, “detected using HBD-1 ELISA (enzyme-linked” for “detected using HBD-3 ELISA developing”, “HBD-1 ELISA (enzyme-linked immunosorbent assay) developing kits” for “HBD-3 ELISA developing kits”

[3] = tested on: HBD-2; experiment: HBD-2 ELISA, dose response in Neonatal Human Epidermal Keratinocytes; settings: for HBD-2: NHEK, overnight (16 hours)
Procedure: as §1, with “of HBD-2” for “of HBD-3”, “ingredients were” for “ingredients was”
as §2, with “HBD-2” for “HBD-3”

palmitoyl pentapeptide-3 [Pamitoyl Pentapeptided-3]
HBD-3 ([1]; 0.02% active ingredient): 288 pg/mL | HBD-3 ([1]; 0.05% active ingredient): 242 pg/mL | HBD-3 ([1]; 0.1% active ingredient): 387 pg/mL | HBD-3 ([1]; 0.2% active ingredient): 775 pg/mL | HBD-3 ([1]; 0.5% active ingredient): 2278 pg/mL | HBD-3 ([1]; 1% active ingredient): 4783 pg/mL | increase in HBD-3 production and/or activity ([1]; 1.0 wt. %): 1005% | HBD-3 ([1]; 2% active ingredient): 8617 pg/mL | increase in HBD-3 production and/or activity ([1]; 2.0 wt. %): 1890% | HBD-1 ([2]; 0.02% active ingredient): 59 pg/mL | HBD-1 ([2]; 0.05% active ingredient): 57 pg/mL | HBD-1 ([2]; 0.1% active ingredient): 64 pg/mL | HBD-1 ([2]; 0.2% active ingredient): 85 pg/mL | HBD-1 ([2]; 0.5% active ingredient): 162 pg/mL | HBD-1 ([2]; 1% active ingredient): 259 pg/mL | increase in HBD-1 production and/or activity ([2]; 1.0 wt. %): 311% | HBD-1 ([2]; 2% active ingredient): 1047 pg/mL | increase in HBD-1 production and/or activity ([2]; 2.0 wt. %): 1561% | HBD-2 ([3]; 0.02% active ingredient): 9 pg/mL | HBD-2 ([3]; 0.05% active ingredient): 8 pg/mL | HBD-2 ([3]; 0.1% active ingredient): 9 pg/mL | HBD-2 ([3]; 0.2% active ingredient): 14 pg/mL | HBD-2 ([3]; 0.5% active ingredient): 21 pg/mL | HBD-2 ([3]; 1% active ingredient): 72 pg/mL | HBD-2 ([3]; 2% active ingredient): 203 pg/mL | increase in HBD-2 production and/or activity ([3]; 2.0 wt. %, vs control culture medium): 2800%
